Experimental data reported in patent US12305177B2, “Methods and platforms for sustainable high yield terpenoid production” (Purdue Research Foundation, priority 2019, dated 2025).

Columns and labels:
A. thaliana Nudx3 = molecular target: T1, A. thaliana Nudx3 (Arabidopsis thaliana, UniProt Q8L831); assay: Phosphatase activity / steady-state kinetics of recombinant AtNudx3 (BIOMOL Green phosphate detection); format: biochemical; details: for Km / kcat: substrate of AtNudx3, 100 mM TAPS pH 8.5, 10 mM MgCl2, 37° C., means ± SD, n = 3
T1 construct: His8 (N, cleaved yes); made in house; host or cells: E. coli BL21(DE3)
T1 sequence (Q8L831 1-772): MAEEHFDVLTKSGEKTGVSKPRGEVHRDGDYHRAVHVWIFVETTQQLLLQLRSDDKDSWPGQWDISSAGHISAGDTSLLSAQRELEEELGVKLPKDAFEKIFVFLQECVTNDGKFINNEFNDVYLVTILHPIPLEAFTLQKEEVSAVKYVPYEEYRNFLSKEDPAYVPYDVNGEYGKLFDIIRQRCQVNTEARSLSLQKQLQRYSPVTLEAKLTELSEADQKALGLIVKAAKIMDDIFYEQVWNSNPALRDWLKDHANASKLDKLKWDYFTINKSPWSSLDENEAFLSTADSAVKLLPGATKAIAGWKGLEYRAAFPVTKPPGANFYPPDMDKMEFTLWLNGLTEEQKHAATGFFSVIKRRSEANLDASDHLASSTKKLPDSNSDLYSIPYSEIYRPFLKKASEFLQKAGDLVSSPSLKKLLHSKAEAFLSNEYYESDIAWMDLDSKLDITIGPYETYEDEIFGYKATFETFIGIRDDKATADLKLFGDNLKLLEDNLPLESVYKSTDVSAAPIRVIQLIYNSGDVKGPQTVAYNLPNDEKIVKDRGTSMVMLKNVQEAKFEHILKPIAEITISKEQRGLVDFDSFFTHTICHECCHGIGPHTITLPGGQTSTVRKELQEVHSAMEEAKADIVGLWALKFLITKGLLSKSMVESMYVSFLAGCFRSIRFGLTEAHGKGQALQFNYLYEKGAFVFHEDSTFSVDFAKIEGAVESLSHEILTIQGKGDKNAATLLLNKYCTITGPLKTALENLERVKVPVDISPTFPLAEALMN
Description: (§1) After removal of the cell debris by centrifugation, expressed proteins were purified from the supernatants by immobilized metal-affinity chromatography with HisPur Ni-NTA resin (ThermoFisher Scientific). Pure proteins were eluted with 50 mM Tris-HCL pH 8.0, 0.5 M NaCl buffer supplemented with 250 mM imidazole followed by buffer exchange to 50 mM Tris-HCl pH 8.0 and 0.2 M NaCl for storage. For the crystal screening and steady-state kinetic analysis described below, the N-terminal His8-tags of AtNudx1 and AtNudx3 were removed with thrombin and remaining histidine-tagged protein was removed by passing over HisPur Ni-NTA resin. AtNudx1 and AtNudx3 were further purified by size-exclusion chromatography on a Superdex 200 16/60 column (GE Lifesciences) equilibrated and eluted with 50 mM Tris-HCl pH 8.0 supplemented with 0.2 M NaCl and 2 mM dithiothreitol.
(§2) All enzyme assays described in the present disclosure were performed as follows. Phosphatase activity was monitored at 37° C. using BIOMOL Green reagent (Enzo Life Sciences) to detect and quantify released phosphate at 623 nm using a phosphate standard curve. The optimum pH for activity was determined using a three-component buffer system of 50 mM acetic acid, 50 mM MES, and 100 mM Tris-HCl with 0.1 mM IPP as substrate. Magnesium ion dependence was investigated with 1 mM to 20 mM MgCl2. […] Reactions were initiated by the addition of enzyme and quenched by the addition of BIOMOL Green.
(§3) Controls included assays without enzyme and without substrate. All enzyme assays were performed at an appropriate enzyme concentration so that the reaction velocity was linear and proportional to the enzyme concentration during the incubation time period. Kinetic data was fitted using Prism (GraphPad Software) to the Michaelis-Menten equation to compute KM and kcat. At least triplicate assays were performed for all data points. Resulting Findings and Systems, Methods, and Platforms

A. thaliana Nudx1 = molecular target: T2, A. thaliana Nudx1 (Arabidopsis thaliana, UniProt Q9CA40); assay: Phosphatase activity / steady-state kinetics of recombinant AtNudx1 (BIOMOL Green phosphate detection); format: biochemical; details: for Km / kcat: substrate of AtNudx1, 100 mM TAPS pH 8.5, 10 mM MgCl2, 37° C., means ± SD, n = 3
T2 construct: The open reading frames (ORFs) of Arabidopsis Nudix genes were PCR-amplified from cDNA; His8 (N, cleaved yes); made in house; host or cells: E. coli BL21(DE3)
T2 sequence (Q9CA40 whole entry): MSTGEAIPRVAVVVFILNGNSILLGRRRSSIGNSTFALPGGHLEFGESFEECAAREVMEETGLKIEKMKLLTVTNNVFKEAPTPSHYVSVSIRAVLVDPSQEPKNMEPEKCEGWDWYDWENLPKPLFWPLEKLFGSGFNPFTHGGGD
Description: as §1, §2, §3

AtPMK = molecular target: T3, AtPMK (Arabidopsis thaliana, UniProt Q9C6T1); details: substrate of Arabidopsis PMK (AtPMK, At1g31910); previous characterization; cited from earlier work
T3 sequence (Q9C6T1 1-505): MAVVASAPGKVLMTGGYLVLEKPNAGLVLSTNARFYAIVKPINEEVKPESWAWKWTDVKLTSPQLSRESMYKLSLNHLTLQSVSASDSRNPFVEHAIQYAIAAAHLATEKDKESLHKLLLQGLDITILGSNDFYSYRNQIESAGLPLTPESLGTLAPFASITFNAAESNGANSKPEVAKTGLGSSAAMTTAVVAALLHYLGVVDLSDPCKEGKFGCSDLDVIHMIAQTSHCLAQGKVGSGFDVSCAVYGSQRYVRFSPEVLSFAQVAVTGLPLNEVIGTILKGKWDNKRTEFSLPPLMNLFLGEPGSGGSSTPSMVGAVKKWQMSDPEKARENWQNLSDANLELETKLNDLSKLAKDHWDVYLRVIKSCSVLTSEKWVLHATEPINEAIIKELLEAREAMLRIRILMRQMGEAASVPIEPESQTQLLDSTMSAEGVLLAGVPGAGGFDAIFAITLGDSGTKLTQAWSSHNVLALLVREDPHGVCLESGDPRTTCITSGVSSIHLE

FPP synthase = details: cited from earlier work

phosphatase activity with the compound as substrate (A. thaliana Nudx3; AtNudx3)	Km (A. thaliana Nudx3)	kcat (A. thaliana Nudx3)	Km (A. thaliana Nudx1)	kcat (A. thaliana Nudx1)	Molecule	phosphatase activity with the compound as substrate (A. thaliana Nudx1; AtNudx1)	further results
No phosphatase activity was detected	–	–	–	–	CC(C)=CCC/C(C)=C/CC/C(C)=C/COP(=O)(O)O [FP, farnesyl phosphate]	No phosphatase activity was detected	–
No phosphatase activity was detected	–	–	–	–	CC(C)=CCOP(=O)(O)O [DMAP, dimethylallyl phosphate]	No phosphatase activity was detected	inhibition of FPP synthase (FPP synthase): competitively inhibited
–	125 ± 36 µM	1.5 ± 0.2 s⁻¹	240 ± 60 µM	0.51 ± 0.06 s⁻¹	mevalonate diphosphate [(R)-MVAPP]	–	fold less efficient as a substrate (catalytic efficiency) (A. thaliana Nudx1; AtNudx1, compared with IPP, DMAPP, GPP and FPP): 100 fold
–	36 ± 8 µM	5.5 ± 0.3 s⁻¹	8 ± 0.6 µM	1.11 ± 0.02 s⁻¹	C=C(C)CCOP(=O)(O)OP(=O)(O)O [IPP, isopentenyl diphosphate]	–	fold higher catalytic efficiency (A. thaliana Nudx3; AtNudx3, compared to GPP and FPP as substrates): 3 fold; fold lower specific activity at pH 6.5 than at the optimal pH of 8.5 (A. thaliana Nudx1; AtNudx1, IPP as substrate, 37° C.): 7 fold
unable to dephosphorylate	–	–	33 ± 2 µM	4.5 ± 0.1 s⁻¹	Nc1nc2c([nH]c(=O)n2[C@H]2C[C@H](O)[C@@H](COP(=O)(O)OP(=O)(O)OP(=O)(O)O)O2)c(=O)[nH]1 [8-oxo-dGTP]	–	–

Molecule	phosphatase activity with the compound as substrate (A. thaliana Nudx3; AtNudx3)	Km (A. thaliana Nudx3)	kcat (A. thaliana Nudx3)	Km (A. thaliana Nudx1)	kcat (A. thaliana Nudx1)	phosphatase activity with the compound as substrate (A. thaliana Nudx1; AtNudx1)	further results
C[C@@](O)(CCOP(=O)(O)O)CC(=O)O [MVAP, phosphomevalonate]	No phosphatase activity was detected	–	–	–	–	No phosphatase activity was detected	Km (AtPMK): 12 µM
CC(C)=CCC/C(C)=C/COP(=O)(O)O [GP, geranyl phosphate]	No phosphatase activity was detected	–	–	–	–	No phosphatase activity was detected	–
CC(C)=CCC/C(C)=C/COP(=O)(O)OP(=O)(O)O [GPP, geranyl diphosphate]	–	53 ± 13 µM	2.7 ± 0.3 s⁻¹	8.3 ± 2.5 µM	2.0 ± 0.3 s⁻¹	–	–
